Patent US9816991B2, “Diagnostic peptides for lyme disease” (Biopeptides Corp., priority 2012, dated 2017)

Test system: human IgG+IgM serum antibodies
Assay: OppA2 peptide ELISA
Type: binding
Details: for binding of antibodies present in RPR+ serum: 26 RPR+ sera
Description: 96-well plates (Nunc Maxisorp) were coated with 10 μg/mL peptide, diluted in 0.1M carbonate-bicarbonate buffer, pH 9.4 (50 μL per well), for 1 hour at room temperature. Blocking buffer 1% bovine serum albumin (BSA) in PBS was added to the wells (250 μL/well) and incubated overnight at 4° C. Wells were washed three times with PBS containing 0.05% Tween 20 (PBS-T) and incubated for 2 hours at room temperature with human samples diluted 1:100 in PBS-1% BSA. Each plate included samples from patients and healthy donors, and all samples were assayed in triplicate. After washing, wells were incubated for 1 hour at RT with a 1:15,000 dilution of HRP-conjugated secondary antibody against human IgG+IgM. Reactions were developed for 30 minutes with 3,3′,5,5′-tetramethylbenzidine (TMB) in the dark at room temperature and the reaction was stopped by the addition of 2N H2SO4. Optical densities were determined at 450 nm and 570 nm wavelengths using a SpectraMax Plus plate reader (Molecular Devices). The cutoff for seropositivity was defined as the mean optical density (OD) of the healthy control samples plus two standard deviations (SD).
OppA2 peptides react specifically with antibodies from Lyme disease patients. The nine peptides were further screened by ELISA using serum or plasma obtained from 104 patients with physician-diagnosed Lyme disease. All patients presented with one or more EM. Control sera was obtained from 45 healthy donors residing in a region of the United States non-endemic for LD, New Mexico. All peptides were incubated with serum in triplicate, and results were validated in two independent experiments. For each peptide, the threshold value for immunoreactivity was defined as the mean optical density (OD) value plus two standard deviations (SD) of results obtained using healthy donor sera. […] OppA2 (191-225) and OppA2 (381-400) were detected by only 2.2% and 6.7%, respectively, of the healthy donor samples.

[1] = Control sera, Healthy blood donors
[2] = Lyme Disease sera, Blood culture negative (localized)
[3] = Lyme Disease sera, Blood culture positive (disseminated)
[4] = Lyme Disease sera, EM positive (1st visit)
[5] = Lyme Disease sera, Elisa Positive

Row | Sequence | reactivity of Lyme disease patient sera compared with sera from healthy donors (in words) | binding of antibodies present in RPR+ serum (in words) | Antibody positivity, % positive [1] [%] | Antibody positivity, N° positive/Total [1] | Antibody positivity, % positive (Control sera, RA) [%] | Antibody positivity, N° positive/Total (Control sera, RA) | Antibody positivity, % positive (Control sera, Syphilis (RPR+)) [%] | Antibody positivity, N° positive/Total (Control sera, Syphilis (RPR+)) | Antibody positivity, % positive [2] [%] | Antibody positivity, N° positive/Total [2] | Antibody positivity, % positive [3] [%] | Antibody positivity, N° positive/Total [3] | Antibody positivity, % positive [4] | Antibody positivity, N° positive/Total [4] | Antibody positivity, % positive (Lyme Disease sera, EM positive (1st visit), listed as OppA2 (286-310)) [%] | Antibody positivity, % positive [5] | Antibody positivity, N° positive/Total [5] | Antibody positivity, % positive (Lyme Disease sera, Wisconsin) | Antibody positivity, N° positive/Total (Lyme Disease sera, Wisconsin) | Antibody positivity, % positive (Lyme Disease sera, EM positive (1st visit), listed as OppA2 (276-300)) [%]
1 | APIYIYGNSYLFRND (listed as Borrelia burgdorferi) [OppA2 (495-505)] | comparable to that of sera from healthy donors | – | – | – | – | – | – | – | – | – | – | – | – | – | – | – | – | – | – | –
2 | IYFYSFNTHIKPLDNVKIRKALTLA (listed as Borrelia sp.) [OppA (286-310)] | – | did not bind | 4.4 | 2/45 | 0 | 0/30 | 0 | 0/26 | 0 | 0/13 | 0 | 0/10 | (43.6) % | 44/104 | 43.6 | (22.9) % | 8/35 | (78.3) % | 36/46 | –
3 | SDYYSSAVNAIYFYAFNTHIKPLDN (listed as Borrelia sp.) [OppA (276-300)] | – | did not bind | 4.4 | 2/45 | 0 | 0/30 | 0 | 0/26 | 0 | 0/13 | 0 | 0/10 | (36.6) % | 34/104 | – | (22.9) % | 8/35 | (56.5) % | 26/46 | 36.6
